Values joined by “and” are separate entries in the source; they are usually repeats but may differ in a detail not shown here. Identical values can stand only once.

Among the targets are MAP3K1 (Homo sapiens, UniProt Q13233); STK38L (Homo sapiens, UniProt Q9Y2H1); LIMK1 (Homo sapiens, UniProt P53667); OXSR1 (Homo sapiens, UniProt O95747); STK38 (Homo sapiens, UniProt Q15208); JAK2 (Homo sapiens, UniProt O60674); NTRK1 (Homo sapiens, UniProt P04629); MAST3 (Homo sapiens, UniProt O60307); MAPK6 (Homo sapiens, UniProt Q16659).
Holding throughout (assay): biochemical
What all share (set-up): endogenous in cells; host or cells: K562 cell extract; species or system K562 (extract); replicate k of n = 2 (each experiment ID is one independent experiment; two experiment IDs per compound)
What all share (details): read-out: KDapp

A further assay concerns the target T1, TBK1 (Homo sapiens, UniProt Q9UHD2).
T1 sequence (Q9UHD2 1-729): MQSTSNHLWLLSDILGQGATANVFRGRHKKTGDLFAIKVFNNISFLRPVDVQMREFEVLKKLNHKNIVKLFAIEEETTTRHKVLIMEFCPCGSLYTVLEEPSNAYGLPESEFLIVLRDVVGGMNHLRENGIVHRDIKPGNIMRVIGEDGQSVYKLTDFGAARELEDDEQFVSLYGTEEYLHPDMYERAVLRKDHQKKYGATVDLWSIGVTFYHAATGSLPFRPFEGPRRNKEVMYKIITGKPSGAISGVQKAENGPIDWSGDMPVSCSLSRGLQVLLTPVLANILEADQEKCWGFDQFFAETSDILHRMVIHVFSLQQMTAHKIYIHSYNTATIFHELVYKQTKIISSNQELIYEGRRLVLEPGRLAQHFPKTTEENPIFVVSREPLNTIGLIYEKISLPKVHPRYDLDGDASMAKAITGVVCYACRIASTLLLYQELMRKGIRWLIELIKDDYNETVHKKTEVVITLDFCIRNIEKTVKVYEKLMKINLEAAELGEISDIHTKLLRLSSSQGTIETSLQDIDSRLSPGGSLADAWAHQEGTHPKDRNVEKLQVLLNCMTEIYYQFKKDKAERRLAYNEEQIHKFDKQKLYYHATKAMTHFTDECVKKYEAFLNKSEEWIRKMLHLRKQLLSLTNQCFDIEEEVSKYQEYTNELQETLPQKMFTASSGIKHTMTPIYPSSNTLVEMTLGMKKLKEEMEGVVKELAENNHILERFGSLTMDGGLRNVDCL

A further assay addresses T2, NEK3 (Homo sapiens, UniProt P51956).
T2 sequence (P51956 1-506): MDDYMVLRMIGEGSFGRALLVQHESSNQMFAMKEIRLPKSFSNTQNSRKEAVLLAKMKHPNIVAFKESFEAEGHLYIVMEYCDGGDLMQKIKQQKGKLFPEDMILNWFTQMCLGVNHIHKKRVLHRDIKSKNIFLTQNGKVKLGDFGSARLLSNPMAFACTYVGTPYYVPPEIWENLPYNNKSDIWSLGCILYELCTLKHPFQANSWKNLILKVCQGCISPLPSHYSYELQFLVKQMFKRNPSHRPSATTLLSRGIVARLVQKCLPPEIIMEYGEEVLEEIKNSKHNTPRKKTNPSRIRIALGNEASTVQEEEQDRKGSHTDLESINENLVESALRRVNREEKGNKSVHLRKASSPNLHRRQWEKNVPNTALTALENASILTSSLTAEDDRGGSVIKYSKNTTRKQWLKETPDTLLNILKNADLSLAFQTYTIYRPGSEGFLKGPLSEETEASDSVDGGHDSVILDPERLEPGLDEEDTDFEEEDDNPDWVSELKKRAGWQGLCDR

Sequence of STK38 (Q15208 whole entry): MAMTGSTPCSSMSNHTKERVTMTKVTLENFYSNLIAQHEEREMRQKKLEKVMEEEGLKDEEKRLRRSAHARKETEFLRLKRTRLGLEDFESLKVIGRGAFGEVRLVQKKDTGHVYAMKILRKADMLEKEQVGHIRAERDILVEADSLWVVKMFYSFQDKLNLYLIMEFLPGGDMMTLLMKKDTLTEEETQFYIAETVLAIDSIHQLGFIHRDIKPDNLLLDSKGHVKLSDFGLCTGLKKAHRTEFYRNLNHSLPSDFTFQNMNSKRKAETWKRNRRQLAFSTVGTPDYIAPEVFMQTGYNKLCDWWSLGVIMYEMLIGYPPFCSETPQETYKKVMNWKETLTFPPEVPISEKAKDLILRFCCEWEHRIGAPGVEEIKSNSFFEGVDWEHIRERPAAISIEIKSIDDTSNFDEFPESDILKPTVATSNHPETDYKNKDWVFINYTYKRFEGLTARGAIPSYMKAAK
Sequence of NTRK1 (P04629 whole entry): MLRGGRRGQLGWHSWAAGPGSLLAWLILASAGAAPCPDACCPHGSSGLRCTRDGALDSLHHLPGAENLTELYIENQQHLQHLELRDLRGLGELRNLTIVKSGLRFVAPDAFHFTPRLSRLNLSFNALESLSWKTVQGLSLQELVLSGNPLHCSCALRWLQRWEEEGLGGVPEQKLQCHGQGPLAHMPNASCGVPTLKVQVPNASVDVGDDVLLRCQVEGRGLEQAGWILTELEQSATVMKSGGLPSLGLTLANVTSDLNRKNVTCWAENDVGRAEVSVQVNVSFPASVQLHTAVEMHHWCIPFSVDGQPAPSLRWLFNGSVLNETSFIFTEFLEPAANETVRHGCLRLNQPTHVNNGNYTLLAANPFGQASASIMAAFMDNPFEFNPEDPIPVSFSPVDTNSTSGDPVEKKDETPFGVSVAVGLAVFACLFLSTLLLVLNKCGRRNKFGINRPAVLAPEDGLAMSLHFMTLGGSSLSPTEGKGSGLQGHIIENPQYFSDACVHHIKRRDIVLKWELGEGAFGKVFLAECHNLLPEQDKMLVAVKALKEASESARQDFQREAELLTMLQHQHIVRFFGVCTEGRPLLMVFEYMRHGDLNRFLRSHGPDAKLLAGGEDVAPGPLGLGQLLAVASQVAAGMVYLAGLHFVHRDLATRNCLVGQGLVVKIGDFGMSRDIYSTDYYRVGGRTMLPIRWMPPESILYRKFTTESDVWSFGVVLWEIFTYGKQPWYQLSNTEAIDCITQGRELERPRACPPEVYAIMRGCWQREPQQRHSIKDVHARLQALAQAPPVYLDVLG
Sequence of OXSR1 (O95747 whole entry): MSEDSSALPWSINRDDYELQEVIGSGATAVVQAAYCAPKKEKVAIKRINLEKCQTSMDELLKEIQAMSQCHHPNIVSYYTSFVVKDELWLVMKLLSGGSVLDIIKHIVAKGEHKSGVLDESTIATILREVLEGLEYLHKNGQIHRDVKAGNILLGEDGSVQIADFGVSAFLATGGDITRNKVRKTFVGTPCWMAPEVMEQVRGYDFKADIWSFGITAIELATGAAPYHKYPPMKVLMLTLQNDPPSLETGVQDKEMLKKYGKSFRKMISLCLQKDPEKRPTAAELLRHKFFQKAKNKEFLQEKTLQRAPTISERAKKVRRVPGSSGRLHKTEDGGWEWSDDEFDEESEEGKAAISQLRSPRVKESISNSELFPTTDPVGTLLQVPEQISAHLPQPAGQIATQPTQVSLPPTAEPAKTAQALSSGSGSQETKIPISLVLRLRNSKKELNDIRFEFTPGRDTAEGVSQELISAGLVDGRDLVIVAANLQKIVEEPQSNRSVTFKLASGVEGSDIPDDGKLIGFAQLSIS
Sequence of JAK2 (O60674 whole entry): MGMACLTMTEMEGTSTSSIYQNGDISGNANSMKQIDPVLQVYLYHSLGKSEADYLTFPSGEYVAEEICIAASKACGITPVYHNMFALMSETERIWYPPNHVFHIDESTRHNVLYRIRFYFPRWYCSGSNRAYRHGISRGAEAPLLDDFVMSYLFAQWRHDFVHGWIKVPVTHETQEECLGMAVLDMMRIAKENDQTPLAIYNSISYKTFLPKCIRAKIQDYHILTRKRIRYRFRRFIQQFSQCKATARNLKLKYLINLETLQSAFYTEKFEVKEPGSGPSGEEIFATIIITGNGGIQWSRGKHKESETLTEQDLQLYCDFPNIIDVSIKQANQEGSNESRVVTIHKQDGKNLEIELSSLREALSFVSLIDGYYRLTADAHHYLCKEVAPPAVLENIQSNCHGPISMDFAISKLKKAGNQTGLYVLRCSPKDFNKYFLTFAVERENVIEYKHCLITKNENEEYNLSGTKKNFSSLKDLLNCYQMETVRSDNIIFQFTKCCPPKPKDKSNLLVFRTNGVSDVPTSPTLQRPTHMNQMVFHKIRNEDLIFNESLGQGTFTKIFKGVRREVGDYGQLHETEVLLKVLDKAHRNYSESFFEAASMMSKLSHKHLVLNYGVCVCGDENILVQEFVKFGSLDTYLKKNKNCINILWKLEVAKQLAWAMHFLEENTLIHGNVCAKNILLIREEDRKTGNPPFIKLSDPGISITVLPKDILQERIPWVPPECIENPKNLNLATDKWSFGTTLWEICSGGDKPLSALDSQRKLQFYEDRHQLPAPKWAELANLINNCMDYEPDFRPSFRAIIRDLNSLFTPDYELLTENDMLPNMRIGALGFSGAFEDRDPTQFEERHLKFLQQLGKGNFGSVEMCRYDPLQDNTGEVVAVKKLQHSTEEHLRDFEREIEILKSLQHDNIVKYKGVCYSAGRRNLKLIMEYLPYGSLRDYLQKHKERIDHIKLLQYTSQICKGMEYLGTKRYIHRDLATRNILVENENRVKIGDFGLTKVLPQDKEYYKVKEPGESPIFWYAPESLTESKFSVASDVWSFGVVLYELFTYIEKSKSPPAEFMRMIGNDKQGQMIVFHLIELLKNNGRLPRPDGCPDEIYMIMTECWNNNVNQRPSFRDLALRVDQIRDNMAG
Sequence of MAPK6 (Q16659 whole entry): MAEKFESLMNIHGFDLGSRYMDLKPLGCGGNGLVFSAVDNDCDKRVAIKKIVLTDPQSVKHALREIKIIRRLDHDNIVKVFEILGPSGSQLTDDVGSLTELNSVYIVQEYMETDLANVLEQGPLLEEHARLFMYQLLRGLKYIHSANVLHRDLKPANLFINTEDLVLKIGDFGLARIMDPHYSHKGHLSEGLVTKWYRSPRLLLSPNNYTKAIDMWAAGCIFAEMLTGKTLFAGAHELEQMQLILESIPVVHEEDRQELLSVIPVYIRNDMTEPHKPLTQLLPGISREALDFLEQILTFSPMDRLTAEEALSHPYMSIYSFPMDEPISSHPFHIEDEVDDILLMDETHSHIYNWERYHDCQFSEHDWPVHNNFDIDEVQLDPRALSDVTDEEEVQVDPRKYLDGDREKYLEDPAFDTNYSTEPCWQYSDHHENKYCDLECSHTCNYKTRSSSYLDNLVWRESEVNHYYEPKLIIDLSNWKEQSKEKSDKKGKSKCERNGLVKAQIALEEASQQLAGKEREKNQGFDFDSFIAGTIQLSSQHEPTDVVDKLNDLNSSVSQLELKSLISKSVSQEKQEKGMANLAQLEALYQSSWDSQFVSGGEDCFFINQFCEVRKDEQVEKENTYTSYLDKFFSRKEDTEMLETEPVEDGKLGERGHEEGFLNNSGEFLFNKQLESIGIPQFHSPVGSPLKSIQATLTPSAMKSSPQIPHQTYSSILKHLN
Sequence of STK38L (Q9Y2H1 whole entry): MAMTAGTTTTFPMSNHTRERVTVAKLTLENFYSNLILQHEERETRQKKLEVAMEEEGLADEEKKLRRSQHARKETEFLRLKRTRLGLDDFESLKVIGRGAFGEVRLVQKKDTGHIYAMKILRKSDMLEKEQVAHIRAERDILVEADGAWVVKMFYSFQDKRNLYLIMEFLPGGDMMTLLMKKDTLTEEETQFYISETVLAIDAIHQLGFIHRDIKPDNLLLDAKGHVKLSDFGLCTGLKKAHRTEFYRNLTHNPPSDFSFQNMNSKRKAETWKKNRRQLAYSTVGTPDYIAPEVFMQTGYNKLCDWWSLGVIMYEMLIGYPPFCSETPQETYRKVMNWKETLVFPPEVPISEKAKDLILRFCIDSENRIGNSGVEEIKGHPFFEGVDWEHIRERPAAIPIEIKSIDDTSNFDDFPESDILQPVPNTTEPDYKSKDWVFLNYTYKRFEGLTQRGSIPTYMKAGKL
Sequence of LIMK1 (P53667 whole entry): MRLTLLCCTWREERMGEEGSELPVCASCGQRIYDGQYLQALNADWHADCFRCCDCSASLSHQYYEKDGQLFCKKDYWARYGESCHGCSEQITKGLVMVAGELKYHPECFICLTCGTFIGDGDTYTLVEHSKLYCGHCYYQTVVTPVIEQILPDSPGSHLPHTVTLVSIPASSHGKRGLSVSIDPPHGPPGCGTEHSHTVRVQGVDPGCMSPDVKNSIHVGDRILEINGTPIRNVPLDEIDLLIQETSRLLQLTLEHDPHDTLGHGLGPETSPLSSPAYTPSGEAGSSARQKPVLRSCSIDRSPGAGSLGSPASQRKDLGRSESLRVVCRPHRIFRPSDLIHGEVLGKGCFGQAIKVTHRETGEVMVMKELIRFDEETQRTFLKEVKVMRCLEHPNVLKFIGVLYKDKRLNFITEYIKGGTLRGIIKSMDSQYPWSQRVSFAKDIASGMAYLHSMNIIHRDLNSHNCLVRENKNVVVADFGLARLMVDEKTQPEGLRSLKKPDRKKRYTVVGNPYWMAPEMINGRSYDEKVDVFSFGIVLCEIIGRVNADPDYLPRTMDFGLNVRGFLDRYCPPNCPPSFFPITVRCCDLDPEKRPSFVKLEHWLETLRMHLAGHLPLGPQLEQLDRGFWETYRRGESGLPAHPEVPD

For `CN1CCN(c2ccc(Nc3ncc(C#N)c(Nc4ccccc4C(N)=O)n3)cc2)CC1.Cl` [TCMDC-134116], the Kd is 0.681 µM at MAP3K1; 0.229 µM and 0.22 µM at TBK1; 0.571 µM at STK38L; 0.717 µM at NEK3; 0.121 µM on LIMK1; 0.073 µM and 0.117 µM on OXSR1. Also, the Kd is 0.306 µM and 0.253 µM at STK38; 0.285 µM and 0.185 µM at JAK2; 1.03 µM and 0.701 µM on NTRK1; 0.0731 µM on MAST3.
With `CN(C)CC(O)COc1ccc(Nc2ncc([N+](=O)[O-])c(Nc3ccccc3O)n2)cc1.O=C(O)C(F)(F)F` (centres unmarked) [TCMDC-141399], the Kd on MAPK6 came to 0.248 µM.

(Values after PMC4774911, “Biochemical Screening of Five Protein Kinases from Plasmodium falciparum against 14,000 Cell-Active Compounds” (PLoS ONE, 2016).)
